# Experimental data as given in patent US20110039877A1, “USE OF 3, 11B-CIS-DIHYDROTETRABENAZINE IN THE TREATMENT OF MULTIPLE SCLEROSIS AND AUTOIMMUNE MYELITIS” (Biovail Laboratories International (Barbados) S.R.L., priority 2007, published 2011).
# Entries after “also recorded” stand apart in the source; their conditions may differ.
# Key:
# DAT and VMAT2 in brain = conditions: conscious rat brain; cited from earlier work
# [1] = tested on: experimental autoimmune encephalomyelitis (EAE) induced with mouse spinal cord homogenate in CFA; experiment: Experimental autoimmune encephalomyelitis (EAE) model of multiple sclerosis; type: in vivo, Biozzi mice; conditions: for protection against EAE (clinical disease score, weight loss): days -1 to 10, Biozzi mice; for overall effect on EAE disease: general statement, no dose given
# Method: Groups of 10 Biozzi mice aged between 5 and 8 weeks of age were challenged in the flank with mouse spinal cord homogenate (SCH) in complete Freund's adjuvant (CFA) in order to induce EAE. Treatments were given according to the schedule below. Treatment (n=8 per group) Group A—vehicle control Group B—RU350 30 mg/kg days −1 to 10 once daily by oral gavage Group C—RU350 10 mg/kg days −1 to 10 twice daily by oral gavage Group D—Positive control drug A 20 mg/ml solution of SCH in PBS was prepared and mixed in an equal volume with CFA. The mixture was sonicated in a Branson 1200 sonicator for 15 minutes and then homogenised for three minutes. An amount of 1 mg in 100 μl was administered per mouse by subcutaneous injection at the base of tail. In addition, mice were given 200 ng pertussis toxin in 0.5 ml by intraperitoneal (ip) injection on day 0 and again 48 hours later. Mice were treated according to the outline above from day −1 to day 10. The compound of formula (Ia) (i.e. RUS350) was prepared daily by dissolving 15 mg of the compound (stored at −20° C.) in sterile distilled water to give 6 mg/ml solution. A dose of 100 μl was given by oral gavage daily to the group B mice (equivalent to 30 mg/kg per 20 g mouse). For group C mice, 1 ml of the […] stock was further diluted 1:3 in sterile distilled water, and a dose of 100 μl was given orally twice daily (equivalent to 2×10 mg/kg per 20 g mouse). Distilled water served as the vehicle control for the mice in group A. Group D mice were given a dose of 5 mg/kg dexamethasone (100 μg in 100 μl per 20 g mouse) on days 3-7 and days 10-12. Moribund animals were euthanised according to Home Office regulations and all remaining animals were euthanized at day 28 post-induction. At termination, brains and spinal cords were taken from all animals and fixed for histopathology examination. Mice were weighed prior to EAE induction (Day 0) and then daily from day 5 until termination. Clinical disease was monitored from day 5 and scored according the following system: [table]
smiles,measurement,setting,value
"COc1cc2c(cc1O[11CH3])CCN1C[C@@H](CC(C)C)[C@H](O)C[C@H]21 (single isomer, unassigned) [(+)-α-[^11C]dihydrotetrabenazine]",distribution of radio-labelled isomer in the brain,DAT and VMAT2 in brain,accumulated in regions of the brain associated with higher concentrations of the neuronal membrane dopamine transporter (DAT) and the vesicular monoamine transporter (VMAT2)
"COc1cc2c(cc1OC)[C@H]1C[C@H](O)[C@@H](CC(C)C)CN1CC2 (single isomer, unassigned) [compound of formula (Ia)]","protection against EAE (clinical disease score, weight loss)",[1]; 10 mg/kg twice daily by oral gavage,very high level of protection
same,"protection against EAE (clinical disease score, weight loss)",[1]; 30 mg/kg once daily by oral gavage,moderate degree of protection
same,overall effect on EAE disease,[1],profound effect on the disease; also recorded: levels of protection similar to that provided by treatment with steroids
same,overall effect on EAE disease,[1]; listed as formula (Ia),inhibits the development of autoimmune encephalomyelitis
COc1cc2c(cc1O[11CH3])CCN1C[C@H](CC(C)C)[C@@H](O)C[C@@H]21 [(−)-α-[^11C]dihydrotetrabenazine],distribution of radio-labelled isomer in the brain,DAT and VMAT2 in brain,almost uniformly distributed in the brain
"C[C@@H]1C[C@H]2[C@@H]3CCC4=CC(=O)C=C[C@]4(C)[C@@]3(F)[C@@H](O)C[C@]2(C)[C@@]1(O)C(=O)CO [steroid, dexamethasone, reference compound]",inhibition of severe EAE associated with weight loss,"[1]; positive control, 5 mg/kg on days 3-7 and days 10-12, Biozzi mice",markedly inhibited this effect
